Experimental data as given in PubChem BioAssay AID248 (DTP/NCI, 2004).
Values joined by “and” are separate entries in the source; they are usually repeats but may differ in a detail not shown here. Equal entries are not always repeated. Inconclusive results and toxic doses are left out. No stated cut-off is given here; in the data, active means T/C of 150% or more; inactive means T/C below 125%.

System: L1210 leukemia ip in BDF1 mice, survival T/C
Assay: NCI In Vivo Anticancer Drug Screen. Data for tumor model L1210 Leukemia (intraperitoneal) in B6D2F1 (BDF1) mice
Conditions: endpoint: mean survival time, higher = longer survival
Summary of the method: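 Mice bearing the transplanted tumor received compound or vehicle. Survival of the treated group was divided by that of the vehicle-treated control group to give the ratio.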

[1] = dose: 100.0 mg/kg/injection, schedule: Q01DX001 (ip), vehicle: saline
[2] = dose: 400.0 mg/kg/injection, schedule: Q01DX001 (ip), vehicle: saline
[3] = dose: 200.0 mg/kg/injection, schedule: Q01DX001 (ip), vehicle: saline
[4] = dose: 100.0 mg/kg/injection, schedule: Q01DX009 (ip), vehicle: Klucel (hydroxypropylcellulose) (HPC)
[5] = dose: 100.0 mg/kg/injection, schedule: Q04DX003 (ip), vehicle: Klucel (hydroxypropylcellulose) (HPC)
[6] = dose: 200.0 mg/kg/injection, schedule: Q04DX003 (ip), vehicle: Klucel (hydroxypropylcellulose) (HPC)
[7] = dose: 400.0 mg/kg/injection, schedule: Q04DX003 (ip), vehicle: Klucel (hydroxypropylcellulose) (HPC)
[8] = dose: 100.0 mg/kg/injection, schedule: Q01DX001 (ip), vehicle: carboxymethylcellulose (CMC)
[9] = dose: 200.0 mg/kg/injection, schedule: Q01DX001 (ip), vehicle: carboxymethylcellulose (CMC)
[10] = dose: 400.0 mg/kg/injection, schedule: Q01DX001 (ip), vehicle: carboxymethylcellulose (CMC)

Measured: T/C

COc1ccc(CNc2ccccc2C(=O)O)cc1OC
inactive: [1] 91 % of control | [2] 103 % of control

COC(=O)C[N+]1(C)C2CCC1CC(Cl)C2 (configuration not stated)
inactive: [1] 101 % of control

O=C(O)c1c(O)c2cc(Br)ccc2oc1=O
inactive: [1] 98 % of control | [3] 98 % of control | [2] 102 % of control

NSc1ccc([N+](=O)[O-])cc1
inactive: dose: 12.5 mg/kg/injection, schedule: Q01DX001 (ip), vehicle: other 102 % of control | dose: 25.0 mg/kg/injection, schedule: Q01DX001 (ip), vehicle: other 97 % of control | dose: 50.0 mg/kg/injection, schedule: Q01DX001 (ip), vehicle: other 101 % of control | [1] 96 % of control | [3] 97 % of control | [2] 103 % of control

C=COCC(C)C (tested in a mixture with another compound)
inactive: dose: 1.56 mg/kg/injection, schedule: Q01DX001 (ip), vehicle: other 94 % of control | dose: 3.12 mg/kg/injection, schedule: Q01DX001 (ip), vehicle: other 91 % of control | dose: 3.12 mg/kg/injection, schedule: Q01DX009 (ip), vehicle: other 109 % of control | dose: 3.12 mg/kg/injection, schedule: Q04DX003 (ip), vehicle: Klucel (hydroxypropylcellulose) (HPC) 97 % of control | dose: 3.13 mg/kg/injection, schedule: Q04DX003 (ip), vehicle: saline 92 % of control | dose: 4.7 mg/kg/injection, schedule: Q01DX009 (ip), vehicle: saline 104 % of control | dose: 6.25 mg/kg/injection, schedule: Q01DX001 (ip), vehicle: other 96 % of control | dose: 6.25 mg/kg/injection, schedule: Q01DX009 (ip), vehicle: Klucel (hydroxypropylcellulose) (HPC) 107 % of control | dose: 6.25 mg/kg/injection, schedule: Q01DX009 (ip), vehicle: other 98 % of control | dose: 6.25 mg/kg/injection, schedule: Q04DX003 (ip), vehicle: Klucel (hydroxypropylcellulose) (HPC) 114 % of control | dose: 6.25 mg/kg/injection, schedule: Q04DX003 (ip), vehicle: saline 94 % of control | dose: 7.09 mg/kg/injection, schedule: Q01DX009 (ip), vehicle: Klucel (hydroxypropylcellulose) (HPC) 107 % of control | dose: 9.4 mg/kg/injection, schedule: Q01DX009 (ip), vehicle: saline 102 % of control | dose: 10.6 mg/kg/injection, schedule: Q01DX009 (ip), vehicle: Klucel (hydroxypropylcellulose) (HPC) 107 % of control | dose: 12.5 mg/kg/injection, schedule: Q01DX009 (ip), vehicle: Klucel (hydroxypropylcellulose) (HPC) 93 % of control | dose: 12.5 mg/kg/injection, schedule: Q04DX003 (ip), vehicle: Klucel (hydroxypropylcellulose) (HPC) 111 % of control | dose: 15.0 mg/kg/injection, schedule: Q01DX001 (ip), vehicle: saline 109 % of control | dose: 25.0 mg/kg/injection, schedule: Q04DX003 (ip), vehicle: Klucel (hydroxypropylcellulose) (HPC) 88 % of control | dose: 30.0 mg/kg/injection, schedule: Q01DX001 (ip), vehicle: saline 112 % of control | dose: 60.0 mg/kg/injection, schedule: Q01DX001 (ip), vehicle: saline 95 % of control | dose: 75.0 mg/kg/injection, schedule: Q01DX001 (ip), vehicle: carboxymethylcellulose (CMC) 95 % of control | dose: 75.0 mg/kg/injection, schedule: Q04DX003 (ip), vehicle: saline 108 % of control and 110 % of control | dose: 100.0 mg/kg/injection, schedule: Q01DX001 (ip), vehicle: other 106 % of control and 94 % of control | dose: 150.0 mg/kg/injection, schedule: Q01DX001 (ip), vehicle: carboxymethylcellulose (CMC) 114 % of control | dose: 150.0 mg/kg/injection, schedule: Q04DX003 (ip), vehicle: saline 98 % of control | dose: 300.0 mg/kg/injection, schedule: Q01DX001 (ip), vehicle: carboxymethylcellulose (CMC) 100 % of control | dose: 400.0 mg/kg/injection, schedule: Q01DX001 (ip), vehicle: Klucel (hydroxypropylcellulose) (HPC) 92 % of control

C=CC1(O)CC2CCC1C2 (configuration not stated)
inactive: dose: 100.0 mg/kg/injection, schedule: Q01DX009 (ip), vehicle: saline with Tween-80 101 % of control | dose: 200.0 mg/kg/injection, schedule: Q01DX009 (ip), vehicle: saline with Tween-80 96 % of control

CCOC(=O)C1CC2C=CC1C2 (configuration not stated)
inactive: [4] 106 % of control | [5] 111 % of control | dose: 200.0 mg/kg/injection, schedule: Q01DX009 (ip), vehicle: Klucel (hydroxypropylcellulose) (HPC) 101 % of control | [6] 100 % of control | dose: 400.0 mg/kg/injection, schedule: Q01DX009 (ip), vehicle: Klucel (hydroxypropylcellulose) (HPC) 103 % of control | [7] 105 % of control

COc1cc2cccc(OC)c(=O)c2c(O)c1OC
inactive: dose: 25.0 mg/kg/injection, schedule: Q01DX009 (ip), vehicle: Klucel (hydroxypropylcellulose) (HPC) 92 % of control | dose: 50.0 mg/kg/injection, schedule: Q01DX009 (ip), vehicle: Klucel (hydroxypropylcellulose) (HPC) 96 % of control | [4] 92 % of control and 106 % of control | [5] 101 % of control | [6] 92 % of control | [7] 99 % of control

O=C(OCC1OC(Cl)C(OC(=O)c2ccccc2)C1OC(=O)c1ccccc1)c1ccccc1 (configuration not stated)
inactive: dose: 100.0 mg/kg/injection, schedule: Q01DX001 (sc), vehicle: olive oil, sesame oil, peanut oil 100 % of control | dose: 200.0 mg/kg/injection, schedule: Q01DX001 (sc), vehicle: olive oil, sesame oil, peanut oil 100 % of control | dose: 400.0 mg/kg/injection, schedule: Q01DX001 (sc), vehicle: olive oil, sesame oil, peanut oil 96 % of control

CC(C)C(C)(O)C#N (configuration not stated)
inactive: dose: 5.0 mg/kg/injection, schedule: Q01DX001 (ip), vehicle: saline 92 % of control | dose: 10.0 mg/kg/injection, schedule: Q01DX001 (ip), vehicle: saline 97 % of control | dose: 20.0 mg/kg/injection, schedule: Q01DX001 (ip), vehicle: saline 100 % of control

O=C(O)C(CSC(c1ccccc1)c1ccccc1)N1C(=O)c2ccccc2C1=O (configuration not stated)
inactive: dose: 75.0 mg/kg/injection, schedule: Q01DX009 (ip), vehicle: Klucel (hydroxypropylcellulose) (HPC) 102 % of control | dose: 75.0 mg/kg/injection, schedule: Q04DX003 (ip), vehicle: Klucel (hydroxypropylcellulose) (HPC) 97 % of control | dose: 150.0 mg/kg/injection, schedule: Q01DX009 (ip), vehicle: Klucel (hydroxypropylcellulose) (HPC) 98 % of control | dose: 150.0 mg/kg/injection, schedule: Q04DX003 (ip), vehicle: Klucel (hydroxypropylcellulose) (HPC) 109 % of control | dose: 300.0 mg/kg/injection, schedule: Q01DX009 (ip), vehicle: Klucel (hydroxypropylcellulose) (HPC) 104 % of control | dose: 300.0 mg/kg/injection, schedule: Q04DX003 (ip), vehicle: Klucel (hydroxypropylcellulose) (HPC) 94 % of control

CN(C)c1ccc(/C=N\NC(=O)N/N=C/c2ccc(N(C)C)cc2)cc1
inactive: dose: 25.0 mg/kg/injection, schedule: Q01DX001 (ip), vehicle: Klucel (hydroxypropylcellulose) (HPC) 92 % of control | dose: 50.0 mg/kg/injection, schedule: Q01DX001 (ip), vehicle: Klucel (hydroxypropylcellulose) (HPC) 97 % of control | dose: 100.0 mg/kg/injection, schedule: Q01DX001 (ip), vehicle: Klucel (hydroxypropylcellulose) (HPC) 97 % of control and 90 % of control

COC(=O)c1cccc([N+](=O)[O-])c1
inactive: [1] 96 % of control | [3] 94 % of control | [2] 100 % of control

O=C(O)CN=CC(O)C(O)C(O)C(O)CO (configuration not stated)
inactive: dose: 12.5 mg/kg/injection, schedule: Q04DX002 (ip), vehicle: saline 105 % of control | dose: 25.0 mg/kg/injection, schedule: Q04DX002 (ip), vehicle: saline 88 % of control | dose: 50.0 mg/kg/injection, schedule: Q04DX002 (ip), vehicle: saline 105 % of control | dose: 100.0 mg/kg/injection, schedule: Q04DX002 (ip), vehicle: saline 123 % of control | dose: 200.0 mg/kg/injection, schedule: Q04DX002 (ip), vehicle: saline 103 % of control | dose: 400.0 mg/kg/injection, schedule: Q04DX002 (ip), vehicle: saline 106 % of control

O=C(O)c1ccccc1N=Cc1ccc(N(CCCl)CCCl)cc1
inactive: dose: 50.0 mg/kg/injection, schedule: Q01DX001 (ip), vehicle: carboxymethylcellulose (CMC) 103 % of control | [8] 122 % of control | [9] 114 % of control | [10] 111 % of control

COc1ccc2nc(N=Nc3c(N)nc(N)[nH]c3=O)sc2c1
inactive: dose: 50.0 mg/kg/injection, schedule: Q04DX003 (ip), vehicle: Klucel (hydroxypropylcellulose) (HPC) 102 % of control | [8] 106 % of control | [5] 104 % of control | [9] 106 % of control | [6] 101 % of control | [10] 101 % of control
